6 compounds from patent US7479489B2, “Heterocyclic antiviral compounds” (Roche Palo Alto LLC, priority 2004, dated 2009) can be followed below.

SMILES strings stand for the structures.

A word on the IC50: it is the concentration at which inhibition is half-maximal. High values mean weaker potency in that assay, low ones greater potency in that assay. Usually melting point stands for the temperature of the solid-liquid transition.

The target in one data set is T1, HCV NS5B570n-BK (Hepatitis C virus genotype 1b, UniProt P26663).
T1 construct: His tag (N); made in house; host or cells: E. coli strain M15
Kind of data set: HCV NS5B RNA polymerase activity. Type of data set: biochemical, HCV BK strain. How it is done:
The enzymatic activity of HCV NS5B570n-BK is measured as incorporation of radiolabeled nucleotide monophosphates into acid insoluble RNA products. Unincorporated radiolabel substrate is removed by filtration and scintillant is added to the washed and dried filter plate containing radiolabeled RNA product. The light emitted by the scintillant is proportional to the amount of RNA product generated by NS5B570n-BK at the endpoint of the reaction.
The N-terminally histidine tagged HCV polymerase, derived from HCV BK strain, genotype 1b (NS5B570n-BK) contains a 21 amino acid deletion at the C-terminus relative to the full-length HCV polymerase and is purified from E. coli strain M15. The construct containing the coding sequence of HCV BK strain amino acid residues 2421-2999 (GenBank accession number M58335) downstream of a […] promoter expression cassette was inserted into plasmid constructs. The plasmid constructs are transformed in E. coli and colonies are inoculated and grown overnight in 10 L of Terrific broth (Tartoff and Hobbs) supplemented with 100 μg/mL ampicillin at 37° C. Protein expression is induced by addition of 1 mM isopropyl-β-D-thiogalactopyranoside (IPTG), when optical densities reaches between 1.5 and 3.5 OD600 and the culture is then incubated for 16- to 18 h at 22° C. NS5B570n-BK is purified to homogeneity using a three step protocol including subsequent column chromatography on Ni-NTA, SP-Sepharose HP and Superdex 75 resins.
Each 50 μl enzymatic reaction contains 8:4 μg/mL polyA:oligo U16 (template:primer), 20 nM or 200 nM NS5B570n-BK enzyme, 1 μCi of tritiated UTP (Perkin Elmer catalog no. TRK412; specific activity: 30 to 60 Ci/mmol; stock solution concentration from 7.5×10^−5 M to 20.6×10^−6 M), 40 mM Tris-HCl pH 8.0, 2 to 40 mM NaCl, 4 mM DTT (dithiothreitol), 4 mM MgCl2, and 5 μl of compound serial diluted in DMSO. Reaction mixtures are assembled in MADVNOB 96-well filter plates (Millipore Co.) and incubated for 2 h at 30° C. Reactions are stopped by addition of 10% (v/v) trichloroacetic acid and incubated for 40 min at 4° C. Reactions are filtered, washed with 8 reaction volumes of 10% (v/v) trichloroacetic acetic acid, 4 reaction volumes of 70% (v/v) ethanol, air dried, and 25 μl of scintillant (Microscint 20, Perkin-Elmer) is added to each reaction well.
The amount of light emitted from the scintillant is converted to counts per minute (CPM) on a Topcount® plate reader (Perkin-Elmer, Energy Range: Low, Efficiency Mode: Normal, Count Time: 1 min, Background Subtract: none, Cross talk reduction: Off).
Data is analyzed with GraphPad® Prism® and/or Microsoft® Excel®. The reaction in the absence of enzyme is used to determine the background signal, which is subtracted from the enzymatic reactions. Positive control reactions are performed in the absence of compound, from which the background corrected activity is set as 100% polymerase activity. All data is expressed as a percentage of the positive control. The compound concentration at which the enzyme-catalyzed rate of RNA synthesis is reduced by 50% (IC50) is calculated by fitting equation (i) to
[formula] the data, where “Y” corresponds to the relative enzyme activity (in %), “% Min” is the residual relative enzymatic activity at saturating compound concentration, “% Max” is the maximal relative enzymatic activity compared to positive control, X corresponds to the compound concentration, and “S” is the Hill coefficient (or slope).
Alternatively the assay can be run as described above with the following modifications. The polyA:oligo U16 homopolymeric RNA template:primer is replaced by the heteropolymeric cIRES RNA template at concentrations of 20 nM or 200 nM. The cIRES RNA template is derived from the complementary sequence of the Internal Ribosome Entry site of the HCV genome (nucleotide 1 through 378 at the 5′-end of the negative strand of the HCV genome (EMBL database accession number AJ238799). The reaction mixture is supplemented with 1 μM ATP, CTP, and GTP […]

The test system of data set [1] is Renilla luciferase HCV replicon cells (2209-23). Briefly: Renilla luciferase assay (HCV replicon). The data set is classed as cell-based. As to conditions: 72 h; replicon level, three days incubation.

T1 sequence (P26663 2421-2989): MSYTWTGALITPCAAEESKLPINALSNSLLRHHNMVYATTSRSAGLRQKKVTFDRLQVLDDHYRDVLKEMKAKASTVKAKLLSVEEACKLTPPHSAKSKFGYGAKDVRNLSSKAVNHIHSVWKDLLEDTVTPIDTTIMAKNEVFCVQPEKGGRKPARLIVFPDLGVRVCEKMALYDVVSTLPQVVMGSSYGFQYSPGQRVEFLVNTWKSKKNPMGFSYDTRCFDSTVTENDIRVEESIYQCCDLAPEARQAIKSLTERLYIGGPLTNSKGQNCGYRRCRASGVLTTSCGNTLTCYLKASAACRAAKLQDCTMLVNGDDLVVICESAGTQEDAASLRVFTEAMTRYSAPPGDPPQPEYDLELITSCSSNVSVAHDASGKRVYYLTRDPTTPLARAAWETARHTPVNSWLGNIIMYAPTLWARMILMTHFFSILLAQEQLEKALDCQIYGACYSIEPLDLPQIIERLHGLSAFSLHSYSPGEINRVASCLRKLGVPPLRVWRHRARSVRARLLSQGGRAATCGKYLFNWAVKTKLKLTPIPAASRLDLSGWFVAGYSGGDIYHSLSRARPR

With `NC(=O)COc1ccc2c(c1)S(=O)(=O)C=C(c1c(O)c3cc(F)ccc3n(Cc3ccc(F)cc3)c1=O)N2` [Compound I-20, 2-{3-[6-Fluoro-1-(4-fluoro-benzyl)-4-hydroxy-2-oxo-1,2-dihydro-quinolin-3-yl]-1,1-dioxo-1,4-dihydro-1λ^6-benzo[1,4]thiazin-7-yloxy}-acetamide], the IC50 against HCV NS5B570n-BK (200 nM polyA: oligo U16) was 150 nM; in data set [1] it was 1050 nM.
Take `CS(=O)(=O)Nc1ccc2c(c1)S(=O)(=O)C=C(c1c(O)c3cc(F)ccc3n(Cc3ccc(F)cc3)c1=O)N2` [Compound I-24, N-{3-[6-Fluoro-1-(4-fluoro-benzyl)-4-hydroxy-2-oxo-1,2-dihydro-quinolin-3-yl]-1,1-dioxo-1,4-dihydro-1λ^6-benzo[1,4]thiazin-7-yl}-methanesulfonamide]: the 50% inhibitory concentration (IC50) against HCV NS5B570n-BK (20 nM cIRES) is 5.5 nM; on HCV NS5B570n-BK (200 nM cIRES), 67 nM; against HCV NS5B570n-BK (200 nM polyA: oligo U16), 151 nM; in data set [1], 13 nM.
Regarding `CCS(=O)(=O)Nc1ccc2c(c1)S(=O)(=O)C=C(c1c(O)c3cc(F)ccc3n(CCC3CC3)c1=O)N2` [Compound I-32, ethanesulfonic acid {3-[1-(2-cyclopropyl-ethyl)-6-fluoro-4-hydroxy-2-oxo-1,2-dihydro-quinolin-3-yl]-1,1-dioxo-1,4-dihydro-1λ6-benzo[1,4]thiazin-7-yl}-amide], the melting point is 140 to 142 °C. This compound also gave an IC50 on HCV NS5B570n-BK (20 nM cIRES) of 7.3 nM. In addition, the half-inhibitory concentration (IC50) against HCV NS5B570n-BK (200 nM polyA: oligo U16) amounted to 220 nM. Besides, in data set [1], the 50% inhibitory concentration (IC50) amounted to 5 nM.
`NS(=O)(=O)Nc1ccc2c(c1)S(=O)(=O)C=C(c1c(O)c3cc(F)ccc3n(CCC3CC3)c1=O)N2` [Compound I-40, 1-{3-[1-(2-cyclopropyl-ethyl)-6-fluoro-4-hydroxy-2-oxo-1,2-dihydro-quinolin-3-yl]-1,1-dioxo-1,4-dihydro-1λ^6-benzo[1,4]thiazin-7-yl}-sulfamide] registered a melting point of 183 to 186 °C. The same compound returned an IC50 at HCV NS5B570n-BK (200 nM polyA: oligo U16) of 350 nM. Also, the midpoint of inhibition in data set [1], the IC50, lay at 9 nM.
Regarding `CS(=O)(=O)Nc1ccc2c(c1)S(=O)(=O)C=C(c1c(O)c3cc(F)c(F)cc3n(Cc3ccc(F)cc3)c1=O)N2` [Compound I-69, N-{3-[6,7-Difluoro-1-(4-fluoro-benzyl)-4-hydroxy-2-oxo-1,2-dihydro-quinolin-3-yl]-1,1-dioxo-1,4-dihydro-1λ^6-benzo[1,4]thiazin-7-yl}-methanesulfonamide], the IC50 on HCV NS5B570n-BK (20 nM cIRES) is 14.4 nM; in data set [1], 15 nM.
Taken in the same sequence, the figures for `CC(C)(C)[C@H]1C(O)=C(C2=CS(=O)(=O)c3cc(NS(C)(=O)=O)ccc3N2)C(=O)N1Cc1ccc(F)c(Cl)c1` [II-11, N-{3-[(S)-5-tert-Butyl-1-(3-chloro-4-fluoro-benzyl)-4-hydroxy-2-oxo-2,5-dihydro-1H-pyrrol-3-yl]-1,1-dioxo-1,4-dihydro-1λ^6-benzo[1,4]thiazin-7-yl}-methanesulfonamide] were 4.6 nM and 9 nM.
